According to US9102636B2, “Analgesic compounds, compositions, and uses thereof” (Galleon Pharmaceuticals, Inc., priority 2010, dated 2015):
Several values for one entry are separate records, joined by “and”; a condition that tells them apart may be missing. Equal entries are not always repeated. Entries after “also recorded” stand apart in the source; their conditions may differ.

Tests used:
[1] = system: hyperalgesia following incisional surgery; assay: Established incisional hyperalgesia, dosing 24 hours after surgery; assay type: in vivo; settings: rat; given 24 hours after surgical incision; FIG. 10
[2] = system: hyperalgesia following incisional surgery; assay: Incisional hyperalgesia, dosing at conclusion of surgery; assay type: in vivo; settings: rat; IV at conclusion of surgical incision; FIG. 9
[3] = system: PC12 cells; assay: Inhibition of peroxynitrite (SIN-1) mediated cytotoxicity, ATPlite; assay type: cell-based; settings: Rattus norvegicus, PC-12, SIN-1 overnight, average of two plates
Description: ATPlite is an Adenosine TriPhosphate monitoring system based on firefly luciferase. ATP monitoring was used as a measure of PC12 cell viability, as it is present in all metabolically active cells and its concentration very rapidly declines as cells undergo necrosis and apoptosis. ATPlite is based upon the production of light given off during the reaction of ATP & D-Luciferin in the presence of Luciferase. The emitted light is proportional to the ATP concentration. Compounds of the invention were assessed for their ability to inhibit SIN-1 induced cell toxicity. Inhibitory concentrations, IC50 values, were calculated by testing compounds of the invention at various concentrations and averaging the IC50 of two plates.
All cell work was carried out under the cell culture hood in a sterile environment. […] The cells were counted in the 4 large corner quadrants of the hemacytometer under the inverted microscope at 10× and the average of the 4 quadrants was calculated. Blue cells were not counted as these cells represented non-viable cells. The number of cells present in 1 mL of media was determined using the following equation: cells/mL=(# cells counted/# squares counted)×10^4×dilution factor. […]
On Day 3, 10.25 ml of ATPlite buffer was added to 1 vial of lyophilized substrate solution (ATPlite 1 step luminescence ATP detection Assay system (Perkin Elmer, #6016731)). […]

[4] = system: Carrageenan-induced thermal hyperalgesia; assay: Carrageenan-induced thermal hyperalgesia (Hargreaves); assay type: in vivo, rat; settings: for Paw withdrawal latency: Pre-Cg, individual rats, FIG. 21A
Procedure: The effect of Compound 2 in the rat carrageenan model of acute inflammatory pain was evaluated. The intraplantar carrageenan model of acute inflammatory pain in the rat results in behaviors similar to that observed in patients and has been widely used to assess novel pharmacological treatments (Whiteside et al., 2005, J. Pharmacol. Exp. Ther. 314:1234-1240). The objective of this study was to evaluate the ability of Compound 2 to reverse or prevent development of thermal hyperalgesia and edema in the rat carrageenan model of acute inflammatory pain. The positive control was indomethacin (Sigma, St. Louis), and the negative control was vehicle (0.5% methyl cellulose). […] The Hargreaves apparatus was obtained from Ugo Basile, Italy, and the lamba-carrageenan was obtained from Sigma, St. Louis. For this assay, paw withdrawal latency to a thermal stimulus was assessed using a radiant heat source (Ugo Basile, Italy) aimed at the plantar surface of the left hind paw (Hargreaves test). […] Paw volume was measured by displacement of water and assuming a tissue density equal to that of water. Baseline latencies were taken prior to carrageenan administration and re-assessed 4 h later. Compound 2 or vehicle was administered (10 and 30 mg/kg, p.o.) 3 hrs after carrageenan (curative) and behavior assessed 1 hr later. […] Indomethacin (positive control, 30 mg/kg p.o.) was administered prior to carrageenan and behavior assessed 4 hrs post-carrageenan. […] After induction of anesthesia, the injection site was prepared in a sterile manner and 50 μl of a 2% Jamba-carrageenan was injected. After injection, animals were weighed and allowed to recover before being returned to their home cages. Statistical significance was determined on untransformed data using a two-way analysis of variance (Graphpad Prism, NC). Significant main effects were analyzed further by subsequent Bonferronni post-hoc test. The level of significance was set at p<0.05. Data are shown as mean±S.E.M. (with an asterisk to denote significance as compared to vehicle treated controls).

`CC1(C)SC(Nc2ccccc2O)=N[C@@H]1C(=O)O` [Compound 2, (R)-2-(2-hydroxyphenylamino)-thiazoline-5,5-dimethyl-4-carboxylic acid] was tested, and the “reversal of hyperalgesia following incisional surgery” value [1] was “reverses hyperalgesia following incisional surgery”, the “development of hyperalgesia following incisional surgery” value [2] was “inhibits the development of hyperalgesia following incisional surgery” and the IC50 [3] was 3.7 µM. For the same compound, the “Paw withdrawal latency” value ([4]; compound 2 10 mg/kg group, 10 mg/kg) was 19.8 s and 15.34 s and 22.07 s and 17.39 s and 31.03 s and 14.07 s, the “Paw withdrawal latency” value ([4]; compound 2 30 mg/kg group, 30 mg/kg) was 23.87 s and 12.41 s and 16.08 s and 28.86 s and 18.1 s and 22.77 s and 17.58 s and the “carrageenan-induced thermal hyperalgesia, curative (finding in words)” value ([4]; rat, 10 and 30 mg/kg p.o. 3 hours post-carrageenan) was “without significantly reversing thermal hyperalgesia; also recorded: did not significantly reverse thermal hyperalgesia”.
